Reference: US20060159648A1, “Novel therapeutic method and compositions for topical administration” (priority 2003, published 2006)
Read-outs that look alike come from different tables or passages of the source.

Legend:
[1] = cited from earlier work; for Plasma protein binding: Product Information; for plasma bound fraction: value used in the flux equations
[2] = human pharmacokinetics after oral dosing (literature); format: in vivo, humans; settings: for Z, target local free (unbound) concentration = peak plasma free drug concentration: peak plasma concentration*(100-PBF)/100
Source text: Z is expressed in units of ng/ml and is the target local free ( i.e. unbound) concentration that is expected to have a therapeutic effect against the skin condition. In the case of PPAR gamma agonists, Z should correspond to the peak plasma free drug concentration generated by dosing these drugs orally to treat effectively Type II diabetes mellitus. The appropriate value of Z may be determined experimentally in vivo by conventional known means using standard protocols.
C is expressed in units of ml/hr and is the rate of clearance of the drug substance. Clearance may be determined experimentally in vivo by conventional known means using standard tests. For example it can be determined from the plasma concentration in response to a defined input of drug using the equation given below: Clearance (ml/hr)=Input rate (ng/hr)/Total plasma concentration (ng/ml)

[3] = cited from earlier work; for clearance: in adults
fasting plasma glucose = settings: type II diabetes patients, cited from earlier work

| SMILES | Plasma protein binding [1] [%] | plasma bound fraction [1] [%] | Z, target local free (unbound) concentration = peak plasma free drug concentration [2] [ng/mL] | Peak plasma concentration ([3]; 30 mg dose) | clearance [3] [mL/h] | Peak plasma concentration ([3]; 8 mg dose) | time to achieve a reduction of fasting plasma glucose by 2 mmol 1 (fasting plasma glucose; 2 mg b.i.d. dosage regimen) | time to achieve a reduction of fasting plasma glucose by 2 mmol 1 (fasting plasma glucose; 4 mg b.i.d. dosage regimen) | clearance ([2]; human, plasma, oral, in adults, from Clearance/Bioavailability and bioavailability with a meal) [mL/min] | Peak plasma concentration ([3]; 400 mg dose) | Bioavailability ([3]; with a meal) [%] | Clearance/Bioavailability ([3]; with a meal) [mL/min] |
| --- | --- | --- | --- | --- | --- | --- | --- | --- | --- | --- | --- | --- |
| CCc1ccc(CCOc2ccc(CC3SC(=O)NC3=O)cc2)nc1 (stereo not drawn) [pioglitazone, 5-[4-[2-(5-ethyl-2-pyridyl)ethoxy]benzyl]thiazolidine-2,4-dione] | > 99 | 99.5 | 3.5 | about 700 ng/ml | 2400 |  |  |  |  |  |  |  |
| CN(CCOc1ccc(CC2SC(=O)NC2=O)cc1)c1ccccn1 (stereo not drawn) [rosiglitazone, 5-[4-[2-(N-methyl-N-(2-pyridyl)amino)ethoxy]benzyl]thiazolidine-2,4-dione] |  | 99.72 | 1.7 |  | 2780 | about 600 ng/ml | about 8 weeks | about 4 weeks |  |  |  |  |
| Cc1c(C)c2c(c(C)c1O)CCC(C)(COc1ccc(CC3SC(=O)NC3=O)cc1)O2 (stereo not drawn) [troglitazone, 5-[[4-[(3,4-dihydro-6-hydroxy-2,5,7,8-tetramethyl-2H-1-benzopyran-2-yl)methoxy]phenyl]methyl]-2,4-thiazolidinedione] | 99 | 99.5 | 7.5 |  |  |  |  |  | 425 | about 1500 ng/ml | ~85 | 500 |
